Measurements taken from patent publication US20240226122A9, “TREATMENT OF GASTROINTESTINAL DISORDERS” (Greenspace Labs, Inc., priority 2022, published 2024).

Assay: Micro evaporation screening, re-dissolution of API:polymer matrices
Format: physicochemical
Protocol: Micro evaporation screening experiments were done by dissolving API and polymer in an organic solvent and mixed in centrifuge tubes. Then the solvent was removed using vacuum concentrator. Samples were then mixed for 4, 10, and 30 minutes using phosphate buffer pH 6.8 as a reconstitution medium. For Eudragit S100 phosphate buffer pH 7.4 was used as a reconstitution media, citrate buffer pH 4.5 was used for Eudragit EPO. Phosphate buffer pH 6.8 was used for the rest of the polymers. Samples were mixed for 4, 10, and 30 minutes. Analysis was done by UV spectrometry to measure re-dissolution behavior of polymer system.
Several organic solvents were screened for the micro evaporation screening trials including acetone, tetrahydrofuran, dichloromethane, methanol, and ethanol.
Round 1 matrix Screening • 30:70 API:Soluplus • 30:70 API:Eudragit EPO • 30:70 API:Kollidon VA 64 • 25:75 API:PVP K30 • 25:75 API:Eudragit S100
Round 2 matrix screening with surfactants
Surfactants/solubilizers (5-10%) were screened for enhancement of spring-parachute effect, which is a strategy used in the pharmaceutical formulation to improve the solubility and bioavailability of poorly-soluble drugs: • PEG 1500 • Poloxamer 407 (HLB˜18) • SLS (HLB˜40) • Kolliphor RH40 (HLB−15) • TPGS (HLB˜13)
CBD Miniaturized Screening Experiment—Micro Evaporation Matrices screened: • API:Soluplus (30:70) • API:Eudragit EPO (30:70) • API:PVP K30 (25:75) • API:Eudragit S100 (25:75) • API:Kollidon VA64 (10:90) • API+Kollidon VA64+PEG1500 (10:85:5) • API+Kollidon VA64+SLS (10:85:5) • API+Kollidon VA64+Kolliphor RH40 (10:85:5) • API+Kollidon VA64+TPGS (10:85:5) • API+Kollidon VA64+Poloxamer 407 (10:85:5)
CBDA Miniaturized Screening Experiment—Micro Evaporation Matrices screened: • API:Eudragit EPO (30:70) • API:PVP K30 (30:70) • API:Soluplus (30:70) • API:Eudragit S100 (30:70) • API:Kollidon VA64 (25:75) • API+Kollidon VA64+PEG1500 (25:70:5) • API+Kollidon VA64+SLS (25:70:5) • API+Kollidon VA64+Kolliphor RH40 (25:70:5) • API+Kollidon VA64+TPGS (25:70:5) • API+Kollidon VA64+Poloxamer 407 (25:70:5)

## C=C(C)[C@@H]1CCC(C)=C[C@H]1c1c(O)cc(CCCCC)c(C(=O)O)c1O [CBDA, cannabidiolic acid]
CBDA matrix with Kollidon VA64 with addition of SLS, Kolliphor RH40, 10 and 30 min timepoints
  dissolution concentration: 490 to 500 µg/mL

## CCCCCc1cc(O)c(C/C=C(\C)CCC=C(C)C)c(O)c1C(=O)O [CBGA, cannabigerolic acid]
CBGA matrix with Kollidon VA64 with addition of SLS and Poloxamer 407
  dissolution concentration: 520 to 550 µg/mL

## C=C(C)[C@@H]1CCC(C)=C[C@H]1c1c(O)cc(CCCCC)cc1O [CBD, cannabidiol, reference compound]
CBD matrix with Kollidon VA64, at 10 min, 1 mg API per tube
  re-dissolution of API from matrix: complete dissolution
